Measurements as given in patent US20230123334A1, “AMINO LIPID COMPOUND, PREPARATION METHOD THEREFOR, AND APPLICATION THEREOF” (SHENZHEN SHENXIN BIOTECHNOLOGY CO., LTD., priority 2020, published 2023).

Tested on: HEK293 cells
Assay: Preliminary screening as DNA vectors, GFP transfection of HEK293 cells
Format: cell-based
Details: amino lipid/DOPE liposome with 75 ng plasmid DNA (psin-EGFP-IRES-Puro); number of GFP-expressing cells divided by total nuclei (Hoechst)
How it was run: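 First, amino lipid and DOPE were vortexed in sodium acetate buffer (pH 5.6) to form liposomes. Next, these were held with 75 ng EGFP plasmid at room temperature for 30 min. Finally, HEK293 cells were added, cultured at 37° C., Hoechst-stained, and GFP+/total nuclei scored by imaging.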

| Structure (SMILES) | Absolute DNA transfection efficiency in HEK293 cells |
| --- | --- |
| CCCCCCCCCCCCCCCCCCNc1nc(NCCCN2CCOCC2)nc(SCCCCCCCCCCCCCCCC)n1 [S16N18 D8] | 0.0% |
| CCCCCCCCCCCSc1nc(NCCCCCCCCC)nc(NCCCN2CCOCC2)n1 [S11N9 D8] | 8.6% |
| CCCCCCCCCCCCCCCCSc1nc(NCCCCCCCCCCC)nc(NCCN(CC)CC)n1 [S16N11 D7] | 15.5% |
| CCCCCCCCCCCCCCCCCCNc1nc(NCCCN(C)C)nc(SCCCCCCCCCCCCCCCCCC)n1 [S18N18 D6] | 0.4% |
| CCCCCCCCCCCCCCSc1nc(NCCN(C)C)nc(N(CCCCCCCCCCCC)CCCCCCCCCCCC)n1 [S14^2N12 D1] | 0.3% |
| CCCCCCCCCCCNc1nc(NCCCN2CCOCC2)nc(SCCCCCCCCCCC)n1 [S11N11 D8] | 2.5% |
| CCCCCCCCCCCCSc1nc(NCCN2CCOCC2)nc(N(CCCCCCCCCCCC)CCCCCCCCCCCC)n1 [S12^2N12 D2] | 0.0% |
| CCCCCCCCCCCCCCSc1nc(NCCCCCCCCCCC)nc(NCCN2CCCCC2)n1 [S14N11 D4] | 3.1% |
| CCCCCCCCCCCCN(CCCCCCCCCCCC)c1nc(NCCN(CC)CC)nc(SCCCCCC)n1 [S6^2N12 D7] | 0.3% |
| CCCCCCCCCCCCN(CCCCCCCCCCCC)c1nc(NCCN2CCN(C)CC2)nc(SCCCCCCC)n1 [S7^2N12 D5] | 0.2% |
| CCCCCCCCCCCCCCCCNc1nc(NCCCN2CCOCC2)nc(SCCCCCCC)n1 [S7N16 D8] | 8.1% |
| CCCCCCCCCCCCN(CCCCCCCCCCCC)c1nc(NCCCN2CCOCC2)nc(SCCCCCCCCCC)n1 [S10^2N12 D8] | 0.0% |
| CCCCCCCCCCCCCCCCCCSc1nc(NCCCCCCCCCCCC)nc(NCCCN2CCOCC2)n1 [S18N12 D8] | 0.0% |
| CCCCCCCCCCSc1nc(NCCCN2CCOCC2)nc(SCCCCCC)n1 [S6S10 D8] | 0.0% |
| CCCCCCCCCCCCCNc1nc(NCCN2CCOCC2)nc(SCCCCCCCCC)n1 [S9N13 D2] | 11.1% |
| CCCCCCCCCCCCCCCCCCNc1nc(NCCN(CC)CC)nc(SCCCCCCCCC)n1 [S9N18 D7] | 6.0% |
| CCCCCCCCCCCNc1nc(NCCCN2CCOCC2)nc(SCCCCCCC)n1 [S7N11 D8] | 13.9% |
| CCCCCCCCCCCCCCCCSc1nc(NCCN(C)C)nc(SCCCCCC)n1 [S6S16 D1] | 8.4% |
| CCCCCCCCCSc1nc(NCCN2CCCC2)nc(SCCCCCCC)n1 [S7S9 D3] | 21.5% |
| CCCCCCCCCCCCCCCNc1nc(NCCN2CCCCC2)nc(SCCCCCCCCCCCCCC)n1 [S14N15 D4] | 0.4% |
| CCCCCCCCNc1nc(NCCN(CC)CC)nc(SCCCCCCCC)n1 [S8N8 D7] | 5.2% |
| CCCCCCCCCCCCCCCCCCNc1nc(NCCCN(C)C)nc(SCCCCCCCCCCCCCC)n1 [S14N18 D6] | 0.9% |
| CCCCCCCCCCCCCCCCNc1nc(NCCN(C)C)nc(SCCCCCCCCCCCCCCCC)n1 [S16N16 D1] | 0.7% |
| CCCCCCCCSc1nc(NCCCN2CCOCC2)nc(SCCCCCC)n1 [S6S8 D8] | 0.6% |
| CCCCCCCCCCSc1nc(NCCCCCCC)nc(NCCN(CC)CC)n1 [S10N7 D7] | 8.1% |
| CCCCCCCCCCCCCCCCCCSc1nc(NCCCCCCCCCCCCCCC)nc(NCCCN2CCOCC2)n1 [S18N15 D8] | 0.0% |
| CCCCCCCCCCCCCCCSc1nc(NCCCN2CCN(C)CC2)nc(SCCCCCCC)n1 [S7S15 D9] | 1.6% |

| Structure (SMILES) | Absolute DNA transfection efficiency in HEK293 cells |
| --- | --- |
| CCCCCCCCCCCCCCSc1nc(NCCCCCCCCC)nc(NCCN(CC)CC)n1 [S14N9 D7] | 10.6% |
| CCCCCCCCCCCCCNc1nc(NCCCN2CCOCC2)nc(SCCCCCCC)n1 [S7N13 D8] | 17.3% |
| CCCCCCCCCCCCCCCSc1nc(NCCCCCCCCCCCC)nc(NCCCN(C)C)n1 [S15N12 D6] | 6.4% |
| CCCCCCCCSc1nc(NCCN2CCN(C)CC2)nc(SCCCCCC)n1 [S6S8 D5] | 15.3% |
| CCCCCCCCCCCCSc1nc(NCCCCCCCCC)nc(NCC2CCN(C)CC2)n1 [S12N9 D10] | 11.3% |
| CCCCCCCCCCCCCCCCNc1nc(NCCN(CC)CC)nc(SCCCCCCCCCCCCCCC)n1 [S15N16 D7] | 0.4% |
| CCCCCCCCCCCCN(CCCCCCCCCCCC)c1nc(NCCN2CCCCC2)nc(SCCCCCCC)n1 [S7^2N12 D4] | 0.0% |
| CCCCCCCCCCCCCCCNc1nc(NCCN2CCCC2)nc(SCCCCCCCCCCCC)n1 [S12N15 D3] | 2.0% |
| CCCCCCCCCCSc1nc(NCCCCCCCC)nc(NCCCN(C)C)n1 [S10N8 D6] | 10.7% |
| CCCCCCCCCCCCCCCCSc1nc(NCCCCCCCCCCCCC)nc(NCCCN(C)C)n1 [S16N13 D6] | 1.2% |
| CCCCCCCCCCCCCCCSc1nc(NCCCCCCCCC)nc(NCCN2CCN(C)CC2)n1 [S15N9 D5] | 17.5% |
| CCCCCCCCCNc1nc(NCCN2CCOCC2)nc(SCCCCCC)n1 [S6N9 D2] | 0.2% |
| CCCCCCCCCCCCCCCCCCNc1nc(NCCCN2CCN(C)CC2)nc(SCCCCCCCC)n1 [S8N18 D9] | 5.3% |
| CCCCCCCCCCCCCCCSc1nc(NCCCCCCCCCCC)nc(NCCN(CC)CC)n1 [S15N11 D7] | 9.3% |
| CCCCCCCCCCCCN(CCCCCCCCCCCC)c1nc(NCCN(CC)CC)nc(SCCCCCCCC)n1 [S8^2N12 D7] | 0.1% |
| CCCCCCCCCCCCCCCCCCNc1nc(NCCN2CCCC2)nc(SCCCCCCC)n1 [S7N18 D3] | 16.1% |
| CCCCCCCCCCCCCCSc1nc(NCCN2CCN(C)CC2)nc(SCCCCCC)n1 [S6S14 D5] | 18.6% |
| CCCCCCCCCCCCSc1nc(NCCCCCCCC)nc(NCC2CCN(C)CC2)n1 [S12N8 D10] | 16.3% |
| CCCCCCCCNc1nc(NCCCN(C)C)nc(SCCCCCCCC)n1 [S8N8 D6] | 8.7% |
| CCCCCCCCCCCCCCCCNc1nc(NCCN2CCCCC2)nc(SCCCCCCCCCCC)n1 [S11N16 D4] | 4.4% |
| CCCCCCCCCCCCCCSc1nc(NCCCCCCCCC)nc(NCCN(C)C)n1 [S14N9 D1] | 20.8% |
| CCCCCCCCCNc1nc(NCCN(C)C)nc(SCCCCCCC)n1 [S7N9 D1] | 28.8% |
| CCCCCCCCCCCCCCSc1nc(NCCN2CCCCC2)nc(SCCCCCC)n1 [S6S14 D4] | 12.0% |
| CCCCCCCSc1nc(NCCCN2CCOCC2)nc(SCCCCCC)n1 [S6S7 D8] | 0.0% |
| CCCCCCCNc1nc(NCCCN2CCN(C)CC2)nc(SCCCCCC)n1 [S6N7 D9] | 0.2% |
| CCCCCCCCCCCCCCCCNc1nc(NCCN2CCCCC2)nc(SCCCCCCCCCCCCCC)n1 [S14N16 D4] | 1.9% |
